How the values were obtained:
[1] = tested on: SK-OV-3; assay: Growth inhibition assay (SRB); assay type: cell-based
Text: (§1) To illustrate the general and useful biological activity of the heteroarotinoids described in this invention, selected compounds were screened for ability to inhibit the growth of three ovarian cancerous cell lines, namely Caov, SKOV, and OVCAR cell lines, three cervical cell lines (Cervix HPV-Wt p53, Cervix HPV-Mut p53, and Cervix HPV-Mut p53), and one vulvar (Vulvar HPV-Mut p53) cell line as shown in Tables I-III. The cell lines and the technology have been previously described [See Journal of Medicinal Chemistry, 1999, Vol. 42, pages 3602-3614 in an article entitled “Synthesis, Structure-Activity Relationships, and RAR γ-Ligand Interactions of Nitrogen Heteroarotinoids” by A. Dhar, S. Liu, J. Klucik, K. D. Berlin, M. M. Madler, S. Lu, R. T. Ivey, D. Zacheis, C. W. Brown, E. C. Nelson, P. J. Birckbichler, and D. M. Benbrook], but the general technique was slightly modified. Cultures of the cancerous cells were plated in volumes of 150 μL in 96-well microtiter plates at concentrations of 2000-4000 cells/well, depending upon the cell line used. Retinoids were added the next day at 4× the concentrations in 50 μL of media resulting in 1, 2, 3, 4, 5, 7, and 10 μM final concentrations of each retinoid. Control cultures were treated with the same volume of DMSO. After 3 days of treatment, the cell density in each well was determined by fixing the cells in trichloroacetic acid followed by staining the cytoplasmic proteins with sulforhoamine B (SRB). After rinsing, the SRB was solubilized in Tris-HCl, and the optical density of each culture was determined with a MR600 microtiter plate reader. Each experiment was performed in triplicate, and the three values of each treatment were averaged. The average OD of the treated cultures was divided by that of the control cultures treated with solvent alone. To determine the percent growth inhibition, this ratio was subtracted from 1 and multiplied by 100. Tables I, II, and III contain representative examples of the inhibition of growth by the inventive heteroarotinoids of the cancerous cell lines investigated at two independent concentrations (1 and 10 μM). As standards for comparison purposes, trans-retinoic acid (t-RA), 9-cis-retinoic acid (9-c-RA), 13-cis-retinoic acid (13-c-RA), and […] (4-HPR) were added in parallel experiments along with the heteroarotinoids and with dimethyl sulfoxide (DMSO) as the solvent. For convenience, the data in Tables II and III are duplicated and ranked according to tumor type.

[2] = tested on: OVCAR-3; assay: Growth inhibition assay (SRB); assay type: cell-based, human
Text: as §1

[3] = tested on: SW962 vulvar carcinoma cultures; assay: Apoptosis assay, Annexin-V-Flous/propidium iodide flow cytometry; assay type: cell-based
Text: Optimal chemotherapeutic agents will selectively kill tumor cells by inducing a natural form of cell death which is called “apoptosis”. Toxic agents kill both normal and tumor cells via a nonspecific process known as “necrosis”. To differentiate between apoptosis and necrosis in heteroarotinoid-treated cultures, a flow cytometric assay was employed. Treated cultures were stained with Annexin-V-Flous and propidium iodide, and the intensities of the stains are quantitated with Flow Cytometry. The Annexin-V-Flous binds to phosphatidyl serine on the exterior of apoptosing cells. This assay is specific for apoptosing cells because phosphatidyl serine is normally located on the inner membrane of the cells, a situation whereby the serine derivative cannot be bound by Annexin. However, during apoptosis, phosphatidyl serine is translocated to the outer membrane. The Flous moiety emits a signal that can be detected and quantitated by Flow Cytometry. In contrast, propidium iodide is taken up by necrotic cells that have lost membrane integrity. In this study, t-RA was used as a control for the non-apoptotic retinoids, and 4-HPR was used as a control for the apoptotic retinoids.

[4] = tested on: ovarian carcinoma cell line OVCAR-3; assay: Apoptosis in organotypic culture, TUNNEL assay; assay type: cell-based, human; conditions: 1 μM, two weeks, organotypic culture, TUNNEL assay
Procedure: In another experiment, the ovarian carcinoma cell line OVCAR-3 was grown in organotypic culture. After one week, the cultures were treated with 1 μM solution of heteroarotinoids 11, 12, and 13, or with the same volume of DMSO (solvent), for two weeks. Both 9-c-RA and 4-HPR were used as controls. At the end of the time, the cultures were fixed in sectioned, and stained with the TUNNEL assay to detect apoptosing cells. An experienced pathologist quantitated the percent of apoptosing cells by light microscopic examination.

[5] = Liver toxicity (plasma ALT activity, liver sections); assay type: in vivo; conditions: 10 mg/kg/day p.o.
Text: Toxic compounds can induce livers to release enzymes called serum transaminases, such as alanine aminotransferase (ALT). The assay for ALT is the most universally accepted clinical laboratory marker used to evaluate hepatic toxicity induced by pharmaceuticals [See “Serum Transferase Elevations as Indicators or Hepatic Injury Following the Administration of Drugs”, Reg. Tox. Pharm., volume 27, 1998, pp 119-130, by D. E. Amacher]. At the end of the treatment period, blood was drawn from each animal. Plasma was separated by centrifugation and stored at −70° C. The activity of ALT was determined in aliquots of plasma by standard spectrophotometric enzymatic techniques which were based upon the reduction of pyruvate by lactate dehydrogenase [See “Aged Mice are Resistant to the Hepatotoxic Effects of Endotoxin and Galactosamine” in Exp. Mol. Pathology, volume 59, 1993, pp 27-37]. The method measures the disappearance of NADH from time of incubation at 37° C. The activities have been expressed in μm/Liter/min (Table VI). Two different amounts of plasma were utilized in each assay to assure the measurement of the maximum rate.
There were no statistically significant differences between the ALT activities in the different treatment groups (Table VI, t-test: P>0.05). All numbers were in the normal range (63 to 307 μm/Liter/Min) of ALT values for the species of mouse utilized. All liver sections were assessed by an experienced pathologist in a blinded manner. The degree of necrosis was very mild in all animals.

[6] = tested on: OVCAR-3 cisplatin-resistant ovarian carcinoma cell line; assay: Cisplatin chemosensitization (MTS assay); assay type: cell-based, human; conditions: for chemosensitization to cisplatin (percent growth, FIG. 2): 1 μM retinoid 3 days before and 3 days after one hour of cisplatin (40 μM or 1 μg/ml)
Procedure: The compounds of the present invention also find advantage over the standard retinoids, including retinoic acid and 4-HPR as chemosensitization agents. In another study, ovarian carcinoma cultures, including cisplatin-resistant cultures, were trypsinized and plated in microtiter plates at a concentration of 1000 cells per well. A series of natural and synthetic retinoids, including exemplar heteroarotinoids with the novel three atom linker, at a concentration of 5 μM were added to triplicate wells in the microtiter plates twenty-four hours later. The same volume of DMSO used to administer the compounds were added to the control cultures. After three days of treatment, a range of cisplatin concentrations were added to the wells. After one hours of exposure, the media and retinoid drugs were replenished. Cell survival was quantitated using the MTS assay (Promega). […] Thus, the present invention contemplates the process of sensitizing cells to cisplatin therapy and combined cisplatin and radiation therapy using the inventive heteroarotinoids.
In this regard, the cisplatin resistant OVCAR-3 cell line was pre-treated with a concentration of 1 μM of the indicated retinoids for 3 days, and then exposed to cisplatin at the concentration detected in tumors of treated patients (40 μM or 1 μg/ml). […] After one hour of cisplatin exposure, the cisplatin was removed and the cultures were grown in the presence of 1 μM of the indicated retinoids for an additional 3 days. The number of living cells present was then determined using the MTS (3-(4,5-dimethylthiazol-2-yl)-5-(3-carboxymethoxyphenyl)-2H-tetrazolium inner salt) assay (Promega). In the MTS assay, metabolically active cells reduce the MTS compound to an aqueous soluble formazan resulting in an absorbance that can be measured at 490 nm (Promega Technical Bulletin No.169). The optical density at 490 nm (OD490) of the MTS-treated cultures is then determined and used as a measure of the number of living cells in each well. The percent growth is determined by dividing the OD490 of the treated cultures by the OD490 of the untreated control cultures.

[7] = tested on: CAOV-3; assay: Growth inhibition assay (SRB); assay type: cell-based
Text: as §1

[8] = tested on: C-33A; assay: Growth inhibition assay (SRB); assay type: cell-based; conditions: 10 μM, three-day treatment, Table I
Text: as §1

[9] = tested on: HT-3; assay: Growth inhibition assay (SRB); assay type: cell-based; conditions: 10 μM, three-day treatment, Table I
Text: as §1

[10] = tested on: SW962; assay: Growth inhibition assay (SRB); assay type: cell-based; conditions: 10 μM, three-day treatment, Table I
Text: as §1

[11] = tested on: SiHa; assay: Growth inhibition assay (SRB); assay type: cell-based; conditions: 10 μM, three-day treatment, Table I
Text: as §1

[12] = 1 μM, 3 days of treatment, Table II
[13] = 10 μM, 3 days of treatment, Table III
[14] = 10 μM, three-day treatment, Table I

| Molecule | Percentage of growth inhibition, SKOV−3 [1, 12] | Percentage of growth inhibition, SKOV−3 [1, 13] | Percentage of growth inhibition, OVCAR−3 [2, 12] | Percentage of growth inhibition, OVCAR−3 [2, 13] | % APOPTOSIS of OVCAR-3 cells [4] | chemosensitization to cisplatin (percent growth, FIG. 2) [6] | Percentage of growth inhibition, CAOV−3 [7, 12] | Percentage of growth inhibition, CAOV−3 [7, 13] | also measured |
| --- | --- | --- | --- | --- | --- | --- | --- | --- | --- |
| CC1=C(/C=C/C(C)=C/C=C/C(C)=C/C(=O)Nc2ccc(O)cc2)C(C)(C)CCC1 [4-HPR, 4-hydroxyphenylretinamide, reference compound] | 7.2% | 64.9% | 2.7% | 43.1% | 95% | but not 4-HPR are effective | – | – | Percentage of induction of apoptosis in SW962 vulvar carcinoma cultures ([3]; Days 0): 3%; Percentage of induction of apoptosis in SW962 vulvar carcinoma cultures ([3]; Days 1): 1.67%; Percentage of induction of apoptosis in SW962 vulvar carcinoma cultures ([3]; Days 2): 3.6%; Percentage of induction of apoptosis in SW962 vulvar carcinoma cultures ([3]; Days 3): 17.28%; liver toxicity (ALT activities, liver sections assessed by pathologist) ([5]; mice): do not appear to induce significant liver toxicity; ALT ACTIVITY ([5]; plasma of mice at end of treatment period): 149.7 ± 140.9 μm/Liter/Min; chemosensitization to cisplatin (cell survival, MTS) ([6]; 5 μM retinoid, three days, then range of cisplatin concentrations): prevented the growth increase |
| CCOC(=O)c1ccc(NC(=O)Nc2cccc3c2SC(C)(C)CC3(C)C)cc1 [heteroarotinoid 24] | 1.86% | 7.98% | −2.16% | 26.53% | – | effective | 17.55% | 53.11% | – |
| COc1cc2c(cc1NC(=S)Nc1ccc([N+](=O)[O-])cc1)C(C)(C)OCC2(C)C [heteroarotinoid 31, [(6-Methoxy-1,1,4,4-tetramethylisochroman-7-yl)amino][(4-nitrophenyl)amino]methane 1-Thione] | – | – | 3.88% | – | – | – | – | – | inhibition at 1 µM ([7]; Homo sapiens, Caov-3, 72 h, 1 μM, 3 days of treatment, Table II, read-out: Percentage of growth inhibition, CAOV−3): 6.88%; inhibition at 10 µM ([7]; Homo sapiens, Caov-3, 72 h, 10 μM, 3 days of treatment, Table III, read-out: Percentage of growth inhibition, CAOV−3): 30.8%; inhibition at 1 µM ([1]; Homo sapiens, SK-OV-3, 72 h, 1 μM, 3 days of treatment, Table II, read-out: Percentage of growth inhibition, SKOV−3): -1.42%; inhibition at 10 µM ([1]; Homo sapiens, SK-OV-3, 72 h, 10 μM, 3 days of treatment, Table III, read-out: Percentage of growth inhibition, SKOV−3): 27.4%; inhibition at 1 µM ([2]; Homo sapiens, OVCAR-3, 72 h, 1 μM, 3 days of treatment, Table II, read-out: Percentage of growth inhibition, OVCAR−3): 3.83%; inhibition at 10 µM ([2]; Homo sapiens, OVCAR-3, 72 h, 10 μM, 3 days of treatment, Table III, read-out: Percentage of growth inhibition, OVCAR−3): 80.6%; melting point: 178 to 179 °C |
| 9-cis-retinoic acid [9-c-RA, reference compound] | 23.0% | 16.0% | 6.2% | 5.3% | 80% | – | – | – | Percentage growth inhibition, C-33A (Cervix HPV− Mut p53) [8]: 44%; Percentage growth inhibition, CAOV-3 (Ovarian HPV− Mut p53) [7, 14]: 27%; Percentage growth inhibition, HT-3 (Cervix HPV− Mut p53) [9]: 47%; Percentage growth inhibition, SK-OV-3 (Ovarian HPV− Null p53) [1, 14]: 30%; Percentage growth inhibition, SW962 (Vulva HPV− Mut p53) [10]: 31%; Percentage growth inhibition, SiHa (Cervix HPV+ Wt p53) [11]: 24%; Percentage growth inhibition, OVCAR-3 (Ovarian HPV− Mut p53) [2, 14]: 28% |
| Cc1cc([N+](=O)[O-])ccc1NC(=S)Nc1ccc2c(c1)C(C)(C)CC(C)(C)S2 [heteroarotinoid 16] | −1.67% | 52.81% | 10.20% | 74.05% | – | effective | 15.33% | 83.22% | – |
